From patent publication US20050227956A1, “Control of mold growth on wood” (priority 2004, published 2005)
Like-named read-outs stand apart in the source and are kept apart here. Marks after values point to notes of the source that are not given here.

What was measured:
Assay in all cases: Six-well plate screening test
[1] = tested on: Aspergillus niger; type: cell-based
[2] = tested on: Aureobasidium pullulans; type: cell-based
[3] = tested on: Cladosporium cladosporioides; type: cell-based
[4] = tested on: Penicillium funiculosum; type: cell-based
[5] = tested on: Alternaria alternata; type: cell-based
[6] = tested on: Trichoderma virens; type: cell-based
[7] = tested on: Stachybotrus charatrum; type: cell-based
[8] = tested on: Mold from ACQ wood; type: cell-based, cephalosporium; settings: 10 days of incubation at room temperature
[9] = 10 days of incubation at room temperature
[10] = single moldicide or ACQ-C alone, incubation period 14 days
[11] = single moldicide, incubation period 21 days

| Compound | Minimum Inhibitory Concentrations (MIC) [1, 9] | Minimum Inhibitory Concentrations (MIC) [2, 9] | Minimum Inhibitory Concentrations (MIC) [3, 9] | Minimum Inhibitory Concentrations (MIC) [4, 9] | Minimum Inhibitory Concentrations (MIC) [5, 9] | Minimum Inhibitory Concentrations (MIC) [6, 9] | Minimum Inhibitory Concentrations (MIC) [7, 9] | further results |
| --- | --- | --- | --- | --- | --- | --- | --- | --- |
| CC(C)(C)C(=O)C(Oc1ccc(Cl)cc1)n1cncn1 (racemic) [Tridimefon, (RS)-1-(4-chlorophenoxy)-3,3-dimethyl-1-(1H-1,2,4-triazol-1-yl)butan-2-one] | >100 mg/kg | >100 mg/kg | >100 mg/kg | >100 mg/kg | >100 mg/kg | >100 mg/kg | >100 mg/kg |  |
| N#Cc1c[nH]cc1-c1cccc(Cl)c1Cl [Fenpiclonil, 4-(2,3-dichlorophenyl)-1H-pyrrole-3-carbonitrile] | 1 mg/kg | 50 mg/kg | 10 mg/kg | >100 mg/kg | 50 mg/kg | >100 mg/kg | 10 mg/kg |  |
| N#CSCSc1nc2ccccc2s1 [TCMBT, 2-(thiocyanomethylthio)benzothiazole] |  | 300 mg/kg | 30 mg/kg | 30 mg/kg | 300 mg/kg | 3 mg/kg | 3 mg/kg | MIC [2, 10]: 300 mg/kg; MIC [3, 10]: 30 mg/kg; MIC [4, 10]: 30 mg/kg; MIC [5, 10]: 300 mg/kg; MIC [6, 10]: 3 mg/kg |
| CCNC(=O)NC(=O)C(C#N)=NOC [Cymoxinil, 1-(2-cyano-2-methoxyiminoacetyl)-3-ethylurea] | 10 mg/kg | >100 mg/kg | >100 mg/kg | >100 mg/kg | >100 mg/kg | >100 mg/kg | >100 mg/kg | MIC [1, 10]: >100 mg/kg; MIC [2, 10]: >100 mg/kg; MIC [3, 10]: >100 mg/kg; MIC [4, 10]: >100 mg/kg; MIC [5, 10]: >100 mg/kg; MIC [6, 10]: >100 mg/kg |
| CCCCNC(=O)n1c(NC(=O)OC)nc2ccccc21 [Benomyl, methyl 1-(butylcarbamoyl)benzimidazol-2-ylcarbamate] | 10 mg/kg | 100 mg/kg | 1^a mg/kg | 1 mg/kg | >100 mg/kg | 1 mg/kg |  |  |
| CC(C)NC(=O)N1CC(=O)N(c2cc(Cl)cc(Cl)c2)C1=O [Iprodione, 3-(3,5-dichlorophenyl)-N-isopropyl-2,4-dioxoimidazolidine-1-carboxamide] | 10 mg/kg | >100 mg/kg | >101 mg/kg | >102 mg/kg | 100 mg/kg | >100 mg/kg |  |  |
| CC(C)(C)C(O)C(Oc1ccc(Cl)cc1)n1cncn1 (stereo not drawn) [BAYTAN, (1RS,2RS; 1RS,2SR)-1-(4-chlorophenoxy)-3,3-dimethyl-1-(1H-1,2,4-triazol-1-yl)butan-2-ol] | >100 mg/kg | 50 mg/kg | 50 mg/kg | >100 mg/kg | >100 mg/kg | >100 mg/kg | >100 mg/kg |  |
| O=[N+]([O-])c1cc(C(F)(F)F)c(Cl)c([N+](=O)[O-])c1Nc1ncc(C(F)(F)F)cc1Cl [Fluazinam, 3-chloro-N-(3-chloro-5-trifluoromethyl-2-pyridyl)-alpha,alpha,alpha-trifluoro-2,6-dinitro-p-toluidine] | 1 mg/kg | 1 mg/kg | 1 mg/kg | 10 mg/kg | 10 mg/kg | >100 mg/kg |  |  |
| CC(Cc1ccc(C(C)(C)C)cc1)CN1C[C@@H](C)O[C@@H](C)C1 (mixture of isomers) [Fenpropimorph, (RS)-cis-4-[3-(4-tert-butylphenyl)-2-methylpropyl]-2,6-dimethylmorpholine] | >100 mg/kg | 10 mg/kg | 50 mg/kg | >100 mg/kg | 50 mg/kg | 10 mg/kg | 10 mg/kg |  |
| CC1(c2ccc(Oc3ccccc3)cc2)OC(=O)N(Nc2ccccc2)C1=O (racemic) [FAMOXATE, (RS)-3-anilino-5-methyl-5-(4-phenoxyphenyl)-1,3-oxazolidine-2,4-dione] | >100 mg/kg | >100 mg/kg | >100 mg/kg | >100 mg/kg | >100 mg/kg | >100 mg/kg | >100 mg/kg |  |
| COC(=O)Nc1nc2ccccc2[nH]1 [Carbendazim, methyl benzimidazol-2-ylcarbamate] | 5 mg/kg | 0.1 mg/kg | 1^a mg/kg | 1 mg/kg | >100 mg/kg | 1 mg/kg |  |  |
| Cc1cc(C2CC2)nc(Nc2ccccc2)n1 [Cyprodinil, 4-cyclopropyl-6-methyl-N-phenylpyrimidin-2-amine] | 10 mg/kg | 100 mg/kg | 100 mg/kg | 100 mg/kg | 10 mg/kg | >100 mg/kg |  | MIC [1, 10]: 100 mg/kg; MIC [1, 11]: >100 mg/kg; MIC [2, 10]: 100 mg/kg; MIC [2, 11]: >100 mg/kg; MIC [3, 10]: 100 mg/kg; MIC [3, 11]: >100 mg/kg; MIC [4, 10]: 100 mg/kg; MIC [4, 11]: 100 mg/kg; MIC [5, 10]: 12.5 mg/kg; MIC [5, 11]: 50 mg/kg; MIC [6, 10]: 100 mg/kg; MIC [6, 11]: >100 mg/kg; MIC [7, 10]: 100 mg/kg; MIC [7, 11]: 100 mg/kg; Minimum Inhibitory Concentrations (MIC) [8]: >100 mg/kg |
| bis(8-hydroxyquinolinium) sulfate [8-hydroxyquinoline] |  |  |  |  |  |  |  | Minimum Inhibitory Concentrations (MIC) [1]: 100 mg/kg; Minimum Inhibitory Concentrations (MIC) [2]: 50 mg/kg; Minimum Inhibitory Concentrations (MIC) [3]: 25 mg/kg; Minimum Inhibitory Concentrations (MIC) [4]: 25 mg/kg; Minimum Inhibitory Concentrations (MIC) [5]: 25 mg/kg; Minimum Inhibitory Concentrations (MIC) [6]: 25 mg/kg; Minimum Inhibitory Concentrations (MIC) [7]: 10 mg/kg |
| S=C([S-])NCCNC(=S)[S-].[Na+].[Na+] [Nabam, disodium ethylenebis(dithiocarbamate)] | 100 mg/kg | 100 mg/kg | 100 mg/kg | >100 mg/kg | >100 mg/kg | 100 mg/kg | 100 mg/kg |  |
| CO/C=C(/C(=O)OC)c1ccccc1Oc1cc(Oc2ccccc2C#N)ncn1 [Azoxystrobin, methyl (E)-2-{2-[6-(2-cyanophenoxy)pyrimidin-4-yloxy]phenyl}-3-methoxyacrylate] | >100 mg/kg | >100 mg/kg | >100 mg/kg | >100 mg/kg | >100 mg/kg | >100 mg/kg | 25 mg/kg |  |
| CC1=C(C(=O)Nc2ccccc2)SCCO1 [Carboxin, 5,6-dihydro-2-methyl-1,4-oxathiine-3-carboxanilide] | >100 mg/kg | 100 mg/kg | 100 mg/kg | >100 mg/kg | >100 mg/kg |  | 100 mg/kg | Minimum Inhibitory Concentrations (MIC) [8]: >100 mg/kg |
